Data set [1] deals with T1, B1 bradykinin receptor (Homo sapiens, UniProt P46663).
T1 sequence (P46663 whole entry): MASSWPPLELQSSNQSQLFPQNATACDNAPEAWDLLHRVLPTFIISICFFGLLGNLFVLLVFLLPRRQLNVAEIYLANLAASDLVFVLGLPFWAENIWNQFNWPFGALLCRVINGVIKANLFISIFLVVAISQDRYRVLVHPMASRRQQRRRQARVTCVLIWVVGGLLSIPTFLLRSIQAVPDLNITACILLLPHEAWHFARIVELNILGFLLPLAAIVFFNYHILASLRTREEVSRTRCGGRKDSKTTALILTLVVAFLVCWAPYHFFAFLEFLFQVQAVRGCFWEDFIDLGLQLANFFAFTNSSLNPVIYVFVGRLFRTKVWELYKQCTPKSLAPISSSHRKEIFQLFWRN
As to the kind of experiment: Antagonist activity at human B1 receptor. The format is functional.

Data set [2] in a line: Volume of distribution at steady state in dog at 1 mg/kg, iv. The format is ADME, organism-based, Canis lupus familiaris. On the set-up: dose 1 mg/kg, route intravenous. The conditions noted are these: in vivo, read-out: Vdss.
Data set [3] addresses T1, B1 bradykinin receptor. As to the kind of experiment: Antagonist activity at human B1 receptor expressed in CHO cells by aequorin-based calcium flux assay. The format is functional, cell-based. For orientation: Calcium assays in cells follow changes in intracellular calcium, usually with a dye or a luminescent sensor.
Data set [4] can be described thus: Clearance in Sprague-Dawley rat at 2 mg/kg, iv. The format is ADME, organism-based. On the set-up: dose 2 mg/kg, route intravenous. The conditions noted are these: in vivo.
A short description of data set [5]: Oral bioavailability in dog at 1 mg/kg. In kind it is ADME, organism-based, Canis lupus familiaris. The following applies: in vivo.
The nature of data set [6]: Oral bioavailability in Sprague-Dawley rat at 5 mg/kg. In kind it is ADME, organism-based. The conditions noted are these: in vivo.
The nature of data set [7]: Half life in Sprague-Dawley rat at 2 mg/kg, iv. The conditions noted are these: in vivo. The format is ADME, organism-based. On the set-up: dose 2 mg/kg, route intravenous.
The nature of data set [8]: Volume of distribution at steady state in Sprague-Dawley rat at 2 mg/kg, iv. In kind it is ADME, organism-based. The conditions noted are these: in vivo, read-out: Vdss. On the set-up: dose 2 mg/kg, route intravenous.
Data set [9] can be described thus: Clearance in dog at 1 mg/kg, iv. The format is ADME, organism-based, Canis lupus familiaris. On the set-up: dose 1 mg/kg, route intravenous. The following applies: in vivo.
Data set [10] concerns the target T2, B1 bradykinin receptor (Oryctolagus cuniculus, UniProt P48748).
T2 sequence (P48748 whole entry): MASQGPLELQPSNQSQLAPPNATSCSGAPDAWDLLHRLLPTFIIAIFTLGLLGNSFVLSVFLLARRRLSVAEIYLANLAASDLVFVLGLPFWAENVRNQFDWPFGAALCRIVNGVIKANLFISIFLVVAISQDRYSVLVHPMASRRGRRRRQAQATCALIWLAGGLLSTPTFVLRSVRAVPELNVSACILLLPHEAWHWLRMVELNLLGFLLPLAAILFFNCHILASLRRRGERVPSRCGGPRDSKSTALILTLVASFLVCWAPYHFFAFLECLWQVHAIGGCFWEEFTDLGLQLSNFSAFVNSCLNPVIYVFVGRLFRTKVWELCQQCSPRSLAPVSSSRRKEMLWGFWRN
As to the kind of experiment: Inhibition of rabbit B1 receptor by cellular calcium flux assay. The format is functional.

Data set [11] in a line: Half life in dog at 1 mg/kg, iv. In kind it is ADME, organism-based, Canis lupus familiaris. The following applies: in vivo. On the set-up: dose 1 mg/kg, route intravenous.
In data set [12] the target is Sodium channel protein type 5 subunit alpha (Homo sapiens, UniProt Q14524). As to the kind of experiment: Activity at Nav1.5 ion channel at 1 uM.
In data set [13] the target is Voltage-gated inwardly rectifying potassium channel KCNH2 (Homo sapiens, UniProt Q12809). As to the kind of experiment: Inhibition of human hERG at 1 uM. (Block of hERG is tested as a sign of cardiac risk.)
Data set [14] has as its target Potassium voltage-gated channel subfamily A member 5 (Homo sapiens) (UniProt P22460). As to the kind of experiment: Activity at Kv1.5 ion channel at 1 uM.
The nature of data set [15]: Fraction unbound in rabbit plasma. The format is ADME, cell-free, Oryctolagus cuniculus.
In data set [16] the test system is Oryctolagus cuniculus. As to the kind of experiment: […] activity in LPS treated rabbit assessed as reversal of DAK-induced hypotension at 0.03 to 3 mg/kg, sc. In kind it is functional, organism-based.
For data set [17], the system named is Oryctolagus cuniculus. As to the kind of experiment: […] activity in LPS treated rabbit assessed as reversal of DAK-induced hypotension at 0.003 to 1 mg/kg, sc. In kind it is functional, organism-based.
For data set [18], the system named is Oryctolagus cuniculus. As to the kind of experiment: Antihypertensive activity in sc dosed rabbit assessed as reduction in DAK-induced hypotension.
In data set [19] the target is T1, B1 bradykinin receptor. As to the kind of experiment: Antagonist activity at human B1 receptor by cell-based assay. The format is functional.
The nature of data set [20]: Clearance in Sprague-Dawley rat. The format is ADME, organism-based. The conditions noted are these: in vivo.
Data set [21] can be described thus: Oral bioavailability in Sprague-Dawley rat. In kind it is ADME, organism-based. The conditions noted are these: in vivo.

Here are results for 16 compounds from ChEMBL document CHEMBL1833915, “Discovery of potent, orally bioavailable phthalazinone bradykinin B1 receptor antagonists” (J Med Chem, 2011).

SMILES strings stand for the structures. Activity calls are given as the source filed them.

Sequence of Potassium voltage-gated channel subfamily A member 5 (Homo sapiens) (P22460 whole entry): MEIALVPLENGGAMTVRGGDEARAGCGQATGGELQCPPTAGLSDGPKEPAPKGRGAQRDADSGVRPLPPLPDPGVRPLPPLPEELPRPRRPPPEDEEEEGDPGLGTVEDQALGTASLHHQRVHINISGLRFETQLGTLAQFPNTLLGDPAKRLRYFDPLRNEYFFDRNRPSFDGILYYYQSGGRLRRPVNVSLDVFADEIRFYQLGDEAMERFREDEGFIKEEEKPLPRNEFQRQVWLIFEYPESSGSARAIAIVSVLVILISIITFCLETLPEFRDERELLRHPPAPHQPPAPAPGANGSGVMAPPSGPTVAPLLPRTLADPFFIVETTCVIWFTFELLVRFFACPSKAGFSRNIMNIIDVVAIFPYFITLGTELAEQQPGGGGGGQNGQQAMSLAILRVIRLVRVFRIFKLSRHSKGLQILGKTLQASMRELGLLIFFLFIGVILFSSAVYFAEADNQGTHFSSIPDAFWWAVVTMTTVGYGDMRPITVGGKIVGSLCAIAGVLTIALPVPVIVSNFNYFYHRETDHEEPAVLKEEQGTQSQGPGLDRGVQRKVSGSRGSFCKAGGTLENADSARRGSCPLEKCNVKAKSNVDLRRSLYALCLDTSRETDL
Sequence of Voltage-gated inwardly rectifying potassium channel KCNH2 (Q12809 whole entry): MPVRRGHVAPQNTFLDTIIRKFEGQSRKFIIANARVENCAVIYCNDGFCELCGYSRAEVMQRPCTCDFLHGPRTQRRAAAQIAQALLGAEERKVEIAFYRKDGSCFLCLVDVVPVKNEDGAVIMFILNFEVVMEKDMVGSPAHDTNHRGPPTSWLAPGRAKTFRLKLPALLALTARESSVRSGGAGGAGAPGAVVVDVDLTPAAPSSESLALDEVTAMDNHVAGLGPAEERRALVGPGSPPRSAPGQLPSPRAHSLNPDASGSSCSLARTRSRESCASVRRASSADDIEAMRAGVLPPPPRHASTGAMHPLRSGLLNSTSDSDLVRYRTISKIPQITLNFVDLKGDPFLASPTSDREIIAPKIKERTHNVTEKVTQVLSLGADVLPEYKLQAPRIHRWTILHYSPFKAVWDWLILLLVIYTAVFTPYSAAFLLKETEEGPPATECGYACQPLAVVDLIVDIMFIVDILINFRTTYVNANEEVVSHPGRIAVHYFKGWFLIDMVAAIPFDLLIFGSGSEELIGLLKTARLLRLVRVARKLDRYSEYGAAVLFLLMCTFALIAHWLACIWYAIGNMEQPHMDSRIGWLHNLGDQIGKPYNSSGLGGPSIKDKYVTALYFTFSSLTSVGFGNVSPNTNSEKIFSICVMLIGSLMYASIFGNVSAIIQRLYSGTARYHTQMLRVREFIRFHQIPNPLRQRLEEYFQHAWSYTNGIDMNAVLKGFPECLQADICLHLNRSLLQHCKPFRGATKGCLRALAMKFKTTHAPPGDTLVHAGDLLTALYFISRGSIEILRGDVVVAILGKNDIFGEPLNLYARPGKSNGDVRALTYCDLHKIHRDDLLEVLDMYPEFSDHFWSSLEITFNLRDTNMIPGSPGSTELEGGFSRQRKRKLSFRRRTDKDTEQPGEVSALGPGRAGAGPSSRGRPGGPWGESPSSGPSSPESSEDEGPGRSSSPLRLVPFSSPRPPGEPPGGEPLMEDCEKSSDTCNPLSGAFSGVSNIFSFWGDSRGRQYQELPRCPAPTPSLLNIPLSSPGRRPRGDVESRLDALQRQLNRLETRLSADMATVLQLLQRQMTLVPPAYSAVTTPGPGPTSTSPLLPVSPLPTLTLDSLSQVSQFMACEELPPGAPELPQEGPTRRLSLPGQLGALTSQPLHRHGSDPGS
Sequence of Sodium channel protein type 5 subunit alpha (Q14524 whole entry): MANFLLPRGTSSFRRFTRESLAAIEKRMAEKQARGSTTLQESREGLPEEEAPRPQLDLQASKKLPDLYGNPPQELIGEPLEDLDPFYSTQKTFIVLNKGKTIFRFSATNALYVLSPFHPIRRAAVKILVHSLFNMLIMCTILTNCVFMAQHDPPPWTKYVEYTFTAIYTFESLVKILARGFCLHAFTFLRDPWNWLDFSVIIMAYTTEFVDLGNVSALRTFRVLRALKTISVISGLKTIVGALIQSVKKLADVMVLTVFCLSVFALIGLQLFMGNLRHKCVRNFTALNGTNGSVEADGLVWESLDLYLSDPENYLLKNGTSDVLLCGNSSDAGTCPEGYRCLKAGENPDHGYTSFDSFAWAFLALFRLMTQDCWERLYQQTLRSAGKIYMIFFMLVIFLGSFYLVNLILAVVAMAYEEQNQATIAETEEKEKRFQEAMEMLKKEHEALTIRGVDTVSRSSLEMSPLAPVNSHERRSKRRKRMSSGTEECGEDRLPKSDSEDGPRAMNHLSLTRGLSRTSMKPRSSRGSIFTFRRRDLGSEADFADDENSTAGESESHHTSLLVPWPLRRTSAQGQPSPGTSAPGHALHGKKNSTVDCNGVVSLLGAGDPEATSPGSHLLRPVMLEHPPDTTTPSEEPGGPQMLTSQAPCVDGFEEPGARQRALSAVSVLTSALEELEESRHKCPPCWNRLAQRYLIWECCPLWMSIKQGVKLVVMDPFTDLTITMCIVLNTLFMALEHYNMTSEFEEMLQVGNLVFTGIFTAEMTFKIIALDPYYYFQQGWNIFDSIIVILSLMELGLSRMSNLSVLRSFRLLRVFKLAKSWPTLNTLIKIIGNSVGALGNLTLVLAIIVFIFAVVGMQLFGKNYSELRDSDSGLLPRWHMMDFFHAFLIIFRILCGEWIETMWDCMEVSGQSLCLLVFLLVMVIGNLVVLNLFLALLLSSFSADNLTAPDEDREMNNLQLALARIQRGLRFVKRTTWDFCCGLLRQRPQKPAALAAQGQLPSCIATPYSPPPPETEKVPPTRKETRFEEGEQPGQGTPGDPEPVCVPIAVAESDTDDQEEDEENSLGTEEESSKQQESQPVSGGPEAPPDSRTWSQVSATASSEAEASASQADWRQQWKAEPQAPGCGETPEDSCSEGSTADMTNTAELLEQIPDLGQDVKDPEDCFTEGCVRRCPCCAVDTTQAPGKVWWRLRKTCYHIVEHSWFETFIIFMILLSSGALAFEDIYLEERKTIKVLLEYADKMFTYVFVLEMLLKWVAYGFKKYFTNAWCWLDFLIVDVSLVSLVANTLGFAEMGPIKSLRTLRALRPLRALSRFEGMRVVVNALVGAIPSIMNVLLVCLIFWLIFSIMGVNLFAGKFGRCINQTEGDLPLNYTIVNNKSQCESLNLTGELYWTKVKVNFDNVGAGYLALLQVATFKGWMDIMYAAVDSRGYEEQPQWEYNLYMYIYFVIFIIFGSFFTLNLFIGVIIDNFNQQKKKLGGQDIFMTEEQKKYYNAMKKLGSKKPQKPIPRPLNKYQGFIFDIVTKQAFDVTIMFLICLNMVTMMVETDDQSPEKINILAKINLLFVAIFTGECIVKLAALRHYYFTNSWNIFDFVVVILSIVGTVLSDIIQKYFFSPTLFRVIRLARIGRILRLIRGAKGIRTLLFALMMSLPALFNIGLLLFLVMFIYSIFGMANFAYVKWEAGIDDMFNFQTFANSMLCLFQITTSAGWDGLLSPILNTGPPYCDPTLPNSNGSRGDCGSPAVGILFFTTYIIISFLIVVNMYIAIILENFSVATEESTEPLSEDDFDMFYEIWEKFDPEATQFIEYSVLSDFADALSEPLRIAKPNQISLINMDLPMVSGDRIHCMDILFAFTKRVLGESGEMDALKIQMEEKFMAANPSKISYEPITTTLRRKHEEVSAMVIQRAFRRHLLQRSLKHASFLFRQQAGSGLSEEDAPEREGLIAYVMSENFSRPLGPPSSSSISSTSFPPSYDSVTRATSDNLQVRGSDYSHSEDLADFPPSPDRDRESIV

What is called Ki is a dissociation constant, usually derived from enzyme kinetics or from competition with a known ligand. A low value points to a stronger hold on the target. Turning to `CCc1nn(-c2ccc(C(=O)N[C@@H]3CCCc4cc(CN5CCCCC5)ccc43)cc2)c(=O)c2ccccc12`, the inhibition constant Ki at B1 bradykinin receptor [1] was 29 nM.
On the same count and under the same terms, the figure for `Cc1nn(-c2cccc(C(=O)N[C@@H]3CCCc4cc(CN5CCCCC5)ccc43)c2)c(=O)c2ccccc12` is 6370 nM.
Consider `O=C(N[C@@H]1CCCc2cc(CN3CCCCC3)ccc21)c1cccc(-n2cnc3ccccc3c2=O)c1`, for which the inhibition constant (Ki) on B1 bradykinin receptor [1] was more than 10000 nM.
The same measure, in the same setting: under `Cc1nn(-c2ccc(C(=O)N[C@@H]3CCCc4cc(CN5CCCCC5)ccc43)cc2)c(=O)c2c(F)ccc(F)c12` stands 3.5 nM.
As usually defined, the IC50 is the concentration needed to halve the response being measured. Usually clearance stands for the rate of elimination divided by the concentration. Read a low clearance as a low capacity for elimination. The bioavailability is dose-corrected exposure relative to a reference, in per cent. High values mean much systemic uptake, low ones little systemic uptake. One may read the half-life as the time needed for the level to fall by half in the phase considered. `Cc1nn(-c2ccc(C(=O)N[C@@H]3CCCc4cc(CN5CCCCC5)ccc43)cc2)c(=O)c2c(Cl)cccc12`: the Vd in [2] was 10.6 L/kg; in [8], 7.85 L/kg. Further, the concentration for half-maximal inhibition (IC50) on B1 bradykinin receptor [3] is 1 nM; on B1 bradykinin receptor [10] it was 21.4 nM. At B1 bradykinin receptor [1], this compound returned a Ki of 0.9 nM. For the same compound, the clearance in data set [4] was 11.2 mL/min/kg; in [9], 19 mL/min/kg. For the same compound, the results for the bioavailability in data set [5] and in data set [6] were 60% and 90%, respectively. The results for the half-life in data set [7] and in data set [11] were 10.4 h and 8.9 h, respectively.
As for `Cc1nn(-c2ccc(C(=O)N[C@@H]3CCCc4cc(CN5CCCCC5)ccc43)cn2)c(=O)c2c(Cl)cccc12`, the Activity result in [12] and in [13] was “Not Active” each time. The outcome in data set [14] was inactive.
At B1 bradykinin receptor [1], `Cc1nn(-c2ccc(C(=O)N[C@@H]3CCCc4cc(CN5CCCCC5)ccc43)cc2)c(=O)c2ccccc12` yielded an inhibition constant (Ki) of 35 nM. For the same compound, the clearance in data set [4] was 15 mL/min/kg. Besides, in data set [6], the bioavailability came out at 51%. Also, the half-life in data set [7] is 6.1 h. Besides, the Vd in data set [8] amounted to 8.09 L/kg.
At B1 bradykinin receptor [1], `O=C(N[C@@H]1CCCc2cc(CN3CCCCC3)ccc21)c1cccc(-c2coc3ccccc3c2=O)c1` yielded a Ki of 64 nM.
The same measure, in the same setting: the figure for `O=C(N[C@@H]1CCCc2cc(CN3CCCCC3)ccc21)c1ccc(-n2nc(-c3ccccc3)c3ccccc3c2=O)cc1` is 418 nM.
In general, fraction unbound refers to free concentration divided by total concentration. On to `Cc1nn(-c2ccc(C(=O)N[C@@H]3CCCc4cc(CN5CCCCC5)ccc43)cn2)c(=O)c2c(F)cccc12`, for which the Activity entry in data set [12] and in data set [13] was “Not Active” throughout. Also, in data set [15], the fraction unbound was 0.24. Besides, the IC50 on B1 bradykinin receptor [3] stood at 0.09 nM; at B1 bradykinin receptor [10] it was 0.6 nM; in the data set on Oryctolagus cuniculus [18], 2.5 nM. At B1 bradykinin receptor [1], this compound gave a Ki of 0.6 nM. In data set [4], the clearance is 23.5 mL/min/kg. For the same compound, the outcome with Oryctolagus cuniculus [16] and in the data set with Oryctolagus cuniculus [17] was Active. The outcome in [14] was inactive. For the same compound, the bioavailability in [6] stood at 61%. For the same compound, the half-life in data set [7] was 3.3 h. Further, the Vd in [8] was determined as 6.45 L/kg.
`O=C(CCCCC(=O)c1ccccc1)N[C@@H]1CCCc2cc(CN3CCCCC3)ccc21` returned a Ki at B1 bradykinin receptor [1] of 1680 nM. This compound also returned a half-maximal inhibitory concentration (IC50) against B1 bradykinin receptor [19] of 1370 nM.
On B1 bradykinin receptor [1], `O=C(Cc1ccc(C(=O)N[C@@H]2CCCc3cc(CN4CCCCC4)ccc32)cc1)c1ccccc1` registered a Ki of 296 nM.
On to `Cc1nn(-c2ccc(C(=O)N[C@@H]3CCCc4cc(CN5CCCCC5)ccc43)cn2)c(=O)c2c(F)ccc(F)c12`, for which the 50% inhibitory concentration (IC50) was found to be 0.3 nM on B1 bradykinin receptor [3] and 2.2 nM on B1 bradykinin receptor [10]. Further, the inhibitory constant (Ki) on B1 bradykinin receptor [1] stood at 0.6 nM.
`O=C(N[C@@H]1CCCc2cc(CN3CCCCC3)ccc21)c1ccc(-n2cnc3ccccc3c2=O)cc1` yielded a Ki on B1 bradykinin receptor [1] of 614 nM.
On to `Cc1ccc(S(=O)(=O)N2CCNC(=O)[C@H]2CC(=O)N[C@@H]2CCCc3cc(CN4CCCCC4)ccc32)cc1`, for which the clearance in data set [20] was 123 mL/min/kg. Moreover, the bioavailability in data set [21] came to 6%. Besides, the IC50 on B1 bradykinin receptor [10] was 4.1 nM.
Regarding `Cc1nn(-c2ccc(C(=O)N[C@@H]3CCCc4cc(CN5CCCCC5)ccc43)cc2)c(=O)c2c(F)cccc12`, on B1 bradykinin receptor [1], the Ki amounted to 1.9 nM. This counts as single-digit nanomolar.
